The values that follow come from patent publication US9907791B2, “Ron inhibitors for use in preventing and treating bone loss” (UNIVERSITY OF UTAH RESEARCH FOUNDATION, priority 2014, dated 2018).

One assay deals with bone marrow osteoclasts. In words: Osteoclast resorption assay. It is filed as cell-based, mice. Particulars: WT osteoclasts, inhibitors 10 μM or muRANK-Fc 10 μg/mL daily day 9 to 12. As for the experimental part:
Bone marrow osteoclasts were generated from 6 to 8 week old WT and RonTK−/− mice. Briefly, bone marrow was isolated from hindlimb bones and plated in α-MEM media containing 10% heat-inactivated fetal bovine serum (FBS, Sigma, St. Louis, Mo.), 100 units/mL penicillin-streptomycin (Hyclone), and 33 ng/mL human macrophage colony-stimulating factor (hM-CSF) (PeproTech, Rocky Hill, N.J.) for 24 hours. Non-adherent cells were collected and frozen for later use. To assess resorption activity, bone marrow precursor cells were thawed and seeded at a density of 1×10^5 cells per well in BioCoat Osteologic slides (BD Biosciences, San Jose, Calif.) in α-MEM media containing 10% FBS and antibiotics. After adhering overnight, media was removed and media containing 33 ng/mL hM-CSF and 9 ng/mL muRANKL (R & D systems, Minneapolis, Minn.) was added. The medium was changed every 3 days depending on acidification, and the assay was terminated as indicated. Recombinant human MSP was prepared and added daily as indicated. Cells were removed with 6% bleach and slides were viewed microscopically using phase-contrast with 20× magnification. Osteolytic resorption area within 5 representative fields was determined using Image J software, experiments were performed in triplicate. […]

The nature of assay [1]: In vivo bone labeling and histomorphometry. Also on record: species or system mice. Particulars: normal, uninjected animals. On the procedure: To label bones, mice were intraperitoneally injected with 20 mg/kg of calcein (Sigma-Aldrich, St. Louis, Mo.) or 30 mg/kg of Alizarin Complexone (Sigma-Aldrich, St. Louis, Mo.) in a 2% sodium bicarbonate solution. Mice 6 to 8 months of age were labeled 8 days and 2 days prior to euthanasia, respectively. Tibia were fixed in 70% ethanol, embedded in methylmethacrylate and sectioned. Bone histomorphometry on H and E sections and bone labeled sections were performed as previously described (Parfitt, et al. Report of the ASBMR Histomorphometry Nomenclature Committee. J. Bone Miner. Res. 1987, 2, 595-610). Analysis of bone volume (BV/TV), and trabecular spacing (Tb. Sp.) were performed on the metaphyseal region of tibia sections stained with H and E. Bone formation rate (BFR) per bone surface (BS) and mineral apposition rate (MAR) of trabeculae were calculated within the metaphyseal region of the tibia. For all histomorphometry, three sections per mouse with 4 to 5 mice per group were analyzed. Analysis was performed using Bioquant Osteo software (Bioquant Image Analysis Corporation, Nashville, Tenn.).

Assay [2] in a line: Human plasma BSAP levels, Phase I patients. The format is in vivo. The conditions noted are these: change compared to baseline. An excerpt:
All samples were de-identified and the experiments were approved by the University of Utah Institutional Review Board. Plasma samples were submitted to ARUP for clinical testing of CTX. For BSAP, the Human Bone Panel I capture plate with the Human Alkaline Phosphatase detection kit was utilized (Meso Scale Discovery, Rockville, Md.; […]-2) to measure BSAP levels in undiluted plasma samples per the manufacturer's protocol. ASLAN002 is currently in Phase I testing as an anti-cancer agent (NCT01721148). Regardless of cancer diagnosis, and even in the absence of bone metastasis, RON inhibition might affect normal bone turnover, especially in postmenopausal women due to their high rate of bone loss. […] Shown in FIG. 15A is quantification of the percent change in plasma CTX levels (compared to baseline prior to drug treatment) in blood plasma of patients receiving ASLAN002 in the Phase I clinical trial. […] None of the patients analyzed were treated concurrently with anti-osteoporotic agents. […] Shown in FIG. 15B is quantification of the percent change in BSAP levels (compared to baseline) in blood plasma of patients receiving ASLAN002. […] Note that these patients were not selected based on a diagnosis of bone metastasis; rather, markers of bone turnover in patients with various cancer diagnoses who participated in the Phase I trial of ASLAN002 were simply assessed.

Assay [3] is described as follows: Human plasma CTX levels, Phase I patients. It is filed as in vivo. An excerpt:
All samples were de-identified and the experiments were approved by the University of Utah Institutional Review Board. Plasma samples were submitted to ARUP for clinical testing of CTX. For BSAP, the Human Bone Panel I capture plate with the Human Alkaline Phosphatase detection kit was utilized (Meso Scale Discovery, Rockville, Md.; […]-2) to measure BSAP levels in undiluted plasma samples per the manufacturer's protocol. ASLAN002 is currently in Phase I testing as an anti-cancer agent (NCT01721148). Regardless of cancer diagnosis, and even in the absence of bone metastasis, RON inhibition might affect normal bone turnover, especially in postmenopausal women due to their high rate of bone loss. Plasma samples from early cohorts of Phase I patients were examined for evidence of bone turnover at baseline and after treatment with ASLAN002, using a standard clinical test to detect cleaved bone-derived collagen in plasma (beta-cross-linked C-telopeptide, or CTX). […] Shown in FIG. 15A is quantification of the percent change in plasma CTX levels (compared to baseline prior to drug treatment) in blood plasma of patients receiving ASLAN002 in the Phase I clinical trial. Most patients received ASLAN002 for 28 days; the exceptions in duration are noted (*15 days and ^84 days). Dark bars represent males, and light bars represent females. […] In this analysis, all subjects except one were >50 years old; women older than 50 were expected to have the greatest amount of physiologic bone turnover due to menopause. None of the patients analyzed were treated concurrently with anti-osteoporotic agents. […] Shown in FIG. 15B is quantification of the percent change in BSAP levels (compared to baseline) in blood plasma of patients receiving ASLAN002. The patients are the same as those shown in FIG. 15A, except those receiving only 15 days of ASLAN002 were not tested for BSAP. Dark bars represent males, and light bars represent females. Note that these patients were not selected based on a diagnosis of bone metastasis; rather, markers of bone turnover in patients with various cancer diagnoses who participated in the Phase I trial of ASLAN002 were simply assessed.

For the compound `CCOc1ccn(-c2ccc(F)cc2)c(=O)c1C(=O)Nc1ccc(Oc2ccnc(N)c2Cl)c(F)c1` [ASLAN002], the “MSP-induced increase in osteoclast resorption (resorption area)” value in the assay with bone marrow osteoclasts is given as “dramatically reduced”. In addition, in assay [1], the “bone formation rate per total bone surface” value is recorded as “not significant” and the mineral apposition rate result is listed as “not significant”. The “plasma bone-specific alkaline phosphatase (BSAP) levels” value in assay [2] is recorded as “increased plasma BSAP”. In addition, the “women showing ≧25% decreases in CTX” value in assay [3] (7/10 women) was 70%. Further, the “patients exhibiting decreased CTX levels” value in assay [3] (11/18 Phase I patients, most 28 days of treatment) came out at 61%. Also, the “men showing ≧25% decreases in CTX” value in assay [3] (number of men out of all men) is 0/8. Further, the “patients with decreased CTX that had ≧25% reduction” value in assay [3] (of the patients with decreased CTX, Mayo clinic response guideline) is 64%.
